{"source": "patent US11241475B2", "about": "“Preventive and/or therapeutic agent for osteogenesis imperfecta and other diseases” (Pharma Foods International Co., Ltd., priority 2016, dated 2022)", "key": {"[1]": {"experiment": "Digestion test using artificial gastric juice (Example 11)", "format": "in vitro ADME", "details": "10 mg in 1 mL, pepsin, pH 3.0, 37° C., 60 and 120 minutes, HPLC; FIG. 35", "description": "A test using artificial gastric juice was performed on the synthetic peptide No. 1. Ten milligrams of the synthetic peptide No. 1 was dissolved in 1 mL of artificial gastric juice (0.2% NaCl, 0.32% pepsin, 2.4% diluted hydrochloric acid, adjusted to pH 3.0), and the mixture was allowed to react under shaking at 37° C. Samples were collected before the reaction and 60 and 120 minutes after the reaction, and subjected to HPLC [column: ODS column (size: diameter 46 mm×500 mm, SHIMADZU); mobile phase: (A) 0.05% TFA, (B) 90% acetonitrile/0.05% TFA; gradient: 2% B (0 min), 20% B (50 min), 100% B (50.1 min), 100% B (55 min); detection: UV 215 nm] to examine whether the synthetic peptide No. 1 was decomposed by the gastric juice (resistance to the gastric juice)."}, "[2]": {"experiment": "Digestion test using artificial intestinal juice (Example 11)", "format": "in vitro ADME", "details": "10 mg in 1 mL, pancreatin, pH 6.8, 37° C., 120 minutes and overnight, HPLC; FIG. 36", "description": "Ten milligrams of the synthetic peptide No. 1 was dissolved in 1 mL of artificial intestinal juice (0.34% KH2PO4, 0.36% Na2HPO4, 1% pancreatin, adjusted to pH 6.8), and the mixture was allowed to react under shaking at 37° C. Samples were collected before the reaction, 120 minutes after the reaction and after overnight reaction, and subjected to HPLC [column: ODS column (size: diameter 46 mm×500 mm, SHIMADZU); mobile phase: (A) 0.05% TFA, (B) 90% acetonitrile/0.05% TFA; gradient: 2% B (0 min), 20% B (50 min), 100% B (50.1 min), 100% B (55 min); detection: UV 215 nm] to examine whether the synthetic peptide No. 1 was decomposed by the intestinal juice (resistance to the intestinal juice)."}, "[3]": {"experiment": "Effect on body weight (Example 7)", "format": "in vivo", "details": "rats, days 1, 3, 5 and 7; peptide 1, 10 or 100 mg/kg/day oral, hGH 500 μg/kg/day subcutaneous; FIG. 24", "description": "The synthetic peptide No. 1 or water for injection (control) was administered to male Crlj:WI rats at the age of four weeks by oral gavage using a gastric tube once a day for seven days (n=10 in each group). The dosage of the synthetic peptide was 1, 10 or 100 mg/kg/day. As a positive control, human growth hormone (hGH) (Norditropin, Japan Standard Commodity Classification Number: 872412) was subcutaneously administered at 500 μg/kg/day once a day for seven days. The body weight was measured on days 1, 3, 5 and 7 of administration."}}, "note": "No end group written: not given here.", "data": [{"sequence": "VNPESEEE [synthetic peptide No. 1, Val-Asn-Pro-Glu-Ser-Glu-Glu-Glu]", "values": [{"measurement": "decomposition by artificial gastric juice (resistance to the gastric juice)", "setting": "[1]", "result": "not decomposed"}, {"measurement": "decomposition by artificial intestinal juice (resistance to the intestinal juice)", "setting": "[2]", "result": "totally decomposed into a peptide having the sequence of the synthetic peptide No. 2"}, {"measurement": "change in the body weight", "setting": "[3]", "result": "No significant change"}]}]}
